The text below walks through data of patent US20260240794A1 (priority 2023, published 2026).

The structures appear in SMILES notation. Where two headings read alike, the source gives them in different places.

One series concerns β-arrestin pathway. Kind of series: Block of the β-arrestin pathway. As to conditions: FIG. 13.
In another series the target is T1, β2-adrenergic receptor (Mus musculus, UniProt P18762).
T1 construct: rows headed: Apparent KD (in parentheses); other: 15 Minutes of drug treatment; KD of radioligand ICYP in lung membranes, not of the; Bmax (receptor density); lung membranes; Apparent KD (in parentheses); other: 28 Days of drug treatment; KD of radioligand ICYP in lung membranes, not of the dr
T1 sequence (P18762 whole entry): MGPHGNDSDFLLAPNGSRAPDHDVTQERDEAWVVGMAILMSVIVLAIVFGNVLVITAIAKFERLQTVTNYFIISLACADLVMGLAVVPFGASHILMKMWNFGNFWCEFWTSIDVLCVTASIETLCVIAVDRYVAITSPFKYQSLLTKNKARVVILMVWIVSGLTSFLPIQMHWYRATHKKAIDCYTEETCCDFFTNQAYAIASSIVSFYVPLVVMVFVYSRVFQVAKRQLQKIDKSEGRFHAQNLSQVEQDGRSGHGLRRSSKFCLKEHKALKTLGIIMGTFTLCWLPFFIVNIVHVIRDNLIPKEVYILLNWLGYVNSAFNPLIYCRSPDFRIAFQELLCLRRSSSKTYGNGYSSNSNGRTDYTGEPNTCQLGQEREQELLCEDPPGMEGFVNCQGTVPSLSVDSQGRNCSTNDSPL
Kind of series: β-adrenergic receptor density by radioligand binding (ICYP) in lung membranes of treated asthmatic mice. Conditions: for Kd: KD of radioligand ICYP in lung membranes, not of the drug, read-out: Apparent KD (in parentheses) (converted); for Bmax (receptor density): lung membranes.

Another series relates to mucous metaplasia. Kind of series: Mucous metaplasia in sensitized/challenged mice (photomicrographs). Format: in vivo. Conditions: sensitized/challenged mice after treatment. From the text:
FIG. 9 is a photomicrograph showing the occurrence of a mucus plug in the bronchus of a child with fatal asthma.

A short description of series [1]: Pharmacokinetics of inhaled and oral airway drugs (literature). Format: in vivo, humans. Conditions: 6 children with asthma versus 11 healthy adults.
For series [2] the following is noted: cited from earlier work.
For series [3], the system named is asthmatic mice (ovalbumin-sensitized and ovalbumin-challenged). It counts as in vivo, Balb/cJ mice. Conditions: chronic treatment 7 days, 20 mg/kg (metoprolol 3x daily s.c., timolol in chow), versus historical controls.
The test system of the next series is Phospholipase C (PLC-β1). As to the kind of experiment: Ratio of phospholipase C to actin by immunoblotting in cultured tracheal smooth muscle cells. It counts as cell-based. As to conditions: cells from asthmatic mice, chronic nadolol high dose treatment. The source says:
Cultured tracheal smooth muscle cells were obtained from mice exposed to the following treatments: NS/NC=nonasthmatic, non-challenged mice; S/C=asthmatic mice; Sal.Ac=asthmatic mice, acute salbutamol treatment; Sal.Ch=asthmatic mice, chronic salbutamol treatment; Nad.Ac=asthmatic mice, acute nadolol high dose treatment; and Nad.Ch=asthmatic mice, chronic nadolol high dose treatment.
After airway function experiments, the tracheas were surgically removed from anesthetized mice that had been treated with drugs or vehicle. The tracheas were minced and the cells plated and grown in culture. The smooth muscle cells grow faster and take over the culture dish. The cells were grown in medium which contained the drugs used in the treatment or vehicle controls. Phospholipase C (PLC-(β1) was determined by immunoblotting with an antibody specific for the enzyme. Actin was used as a loading control and the amount of PLC-β1 was expressed as a ratio of phospholipase C to actin.
For orientation: A western blot detects proteins with antibodies after separation by electrophoresis.

The subject of a further series is cAMP accumulation. Kind of series: cAMP accumulation. A general note: cAMP levels reflect the balance of adenylyl cyclase and phosphodiesterase activity.
A further series deals with mucin 5AC. As to the kind of experiment: Level of mucin 5AC in smokers, nadolol versus placebo. It counts as in vivo, human. As to conditions: P<0.05.
For series [4] the following is noted: cited from earlier work. This is another data set of the same source.

Take `C=CCc1ccccc1OCC(O)CNC(C)C` (stereo not drawn) [alprenolol]: the “block of the β-arrestin pathway” value with β-arrestin pathway is reported as “did not block the β-arrestin pathway”. For the same molecule, the Kd at β2-adrenergic receptor (15 Minutes of drug treatment) is 0.454 nM. Further, at β2-adrenergic receptor (28 Days of drug treatment), the Kd was 0.291 nM and the “Bmax (receptor density)” value is 179.2 ± 53.05 femtomoles of sites per milligram of protein. Also, the mucous metaplasia entry in the series on mucous metaplasia is “no improvement in mucous metaplasia”.
As to `CCCC1O[C@@H]2C[C@H]3[C@@H]4CCC5=CC(=O)C=C[C@]5(C)[C@H]4[C@@H](O)C[C@]3(C)[C@]2(C(=O)CO)O1` (stereo partly drawn) [budesonide], the “plasma clearance of the two enantiomers per kilogram of bodyweight, excess in children over adults” value in series [1] is “about 50%”. Further, in series [2] (in vivo), the elimination half-life was 2.8 ± 1.1 h and the plasma clearance was 84 ± 27 L/h.
Consider `COc1ccccc1OCCNCC(O)COc1cccc2[nH]c3ccccc3c12` (stereo not drawn) [carvedilol], for which the “block of the β-arrestin pathway” value in the series on β-arrestin pathway was “did not block the β-arrestin pathway”. At β2-adrenergic receptor (15 Minutes of drug treatment), the Kd is 0.565 nM. On β2-adrenergic receptor (28 Days of drug treatment), the Kd was 1.44 nM and the “Bmax (receptor density)” value is reported as 904.1 ± 43.46 femtomoles of sites per milligram of protein.
`COCCc1ccc(OCC(O)CNC(C)C)cc1` (stereo not drawn) [metoprolol]: the “airway hyperresponsiveness (Raw)” value in series [3] is “effective in reducing airway hyperresponsiveness”.
With `CC(C)(C)NCC(O)COc1cccc2c1CC(O)C(O)C2` (stereo not drawn) [nadolol], the “ratio of phospholipase C (PLC-β1) to actin” value in the series on Phospholipase C (PLC-β1) is on record as “significantly decreases the activity of phospholipase C”. Besides, the cAMP accumulation entry in the series on cAMP accumulation is on record as “not associated with cAMP accumulation”. In addition, the “level of mucin 5AC” value with mucin 5AC is “reduces the accumulation of the mucus-associated protein mucin 5AC”. For the same molecule, the “block of the β-arrestin pathway” value in the series with β-arrestin pathway is recorded as “blocks this pathway”. For the same molecule, in series [4], the lipid solubility entry is reported as “low lipid solubility”. Further, at β2-adrenergic receptor (15 Minutes of drug treatment), the Kd is 0.695 nM. Besides, on β2-adrenergic receptor (28 Days of drug treatment), the Kd is 1.59 nM and the “Bmax (receptor density)” value was 785.5 ± 154.8 femtomoles of sites per milligram of protein. The mucous metaplasia result in the series with mucous metaplasia is on record as “nearly complete elimination of mucous metaplasia”.
In the case of `CC(C)NCC(O)COc1cccc2ccccc12` (stereo not drawn) [propranolol], in the series on β-arrestin pathway, the “block of the β-arrestin pathway” value is reported as “did not block the β-arrestin pathway”.
Take `CC(C)(C)NCC(O)c1ccc(O)c(CO)c1` (stereo not drawn) [salbutamol]: the “Bmax (receptor density)” value on β2-adrenergic receptor (28 Days of drug treatment) was 97.0 ± 23.02 femtomoles of sites per milligram of protein.
As to `CC(C)(C)NCC(O)c1cc(O)cc(O)c1` (stereo not drawn) [terbutaline], in series [2] (from an MDI), the “bioavailability with the oral component (swallowed fraction of the dose) added” value was 16.5% and the mean pulmonary bioavailability was 9.1%.
For the molecule `CC(C)(C)NC[C@H](O)COc1nsnc1N1CCOCC1` [timolol], the “airway hyperresponsiveness (Raw)” value in series [3] is on record as “effective in reducing airway hyperresponsiveness”.
